# According to publication PMC10451623 (Antioxidants, 2023):
# How the values were obtained:
# PPARα-LBD [1] = molecular target: T1, PPARα-LBD (Homo sapiens, UniProt Q07869); test: Thermal stability assay using circular dichroism spectroscopy; type: binding; parameters: Human PPARα-LBD (amino acids 200–468); His tag (pET28a) (N); made in house; host or cells: Rosetta (DE3) pLysS (E. coli); conditions: CD at 222 nm; 10 µM LBD; GW7647 at 10 µM
# T1 sequence (Q07869 200-468): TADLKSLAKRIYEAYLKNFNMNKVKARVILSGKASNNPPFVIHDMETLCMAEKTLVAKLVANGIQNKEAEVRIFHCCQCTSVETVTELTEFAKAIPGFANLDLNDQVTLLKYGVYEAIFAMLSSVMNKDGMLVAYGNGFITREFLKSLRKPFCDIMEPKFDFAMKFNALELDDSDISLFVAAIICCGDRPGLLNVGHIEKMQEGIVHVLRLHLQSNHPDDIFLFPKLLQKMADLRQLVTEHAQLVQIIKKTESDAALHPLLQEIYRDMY
# Procedure: (§1) PPARα/δ/γ-LBD proteins (10 µM) were incubated with different concentrations of ligands in buffer C consisting of 20 mM Tris-HCl (pH 8.0), 150 mM NaCl, 1 mM Tris 2-carboxyethylphosphine (TCEP)-HCl, and 10% glycerol. The circular dichroism (CD) spectra were monitored within a 200–260 nm range at increasing temperatures from 30 °C to 70 °C (2 °C/min) using a J-1500 spectropolarimeter equipped with a PTC-510 thermal controller (JASCO, Tokyo, Japan). […] The ligand-induced increases in the Tm values were defined as ∆Tm.
# (§2) Nuclear receptors, including PPARs, display an increased thermal stability upon ligand binding, which is detectable through CD spectroscopy.
# (§3) Figure 3 Circular dichroism-based PPARα/δ/γ-LBD thermal stability assay. […] Data are presented as the mean ± SE of three or four (in parentheses) independent experiments. Differences vs. basal levels (with 0.1% DMSO) were statistically assessed by one-way ANOVA, followed by a Dunnett’s post hoc test: * p < 0.05, ** p < 0.01, and *** p < 0.001.
# PPARδ-LBD = molecular target: T2, PPARδ-LBD (Homo sapiens, UniProt Q03181); test: as above; type: binding; parameters: PPARδ-LBD (amino acids 170–441); His tag (pET28a) (N); made in house; host or cells: Rosetta (DE3) pLysS (E. coli); conditions: CD at 222 nm; 10 µM LBD; GW501516 at 50 µM
# T2 sequence (Q03181 170-441): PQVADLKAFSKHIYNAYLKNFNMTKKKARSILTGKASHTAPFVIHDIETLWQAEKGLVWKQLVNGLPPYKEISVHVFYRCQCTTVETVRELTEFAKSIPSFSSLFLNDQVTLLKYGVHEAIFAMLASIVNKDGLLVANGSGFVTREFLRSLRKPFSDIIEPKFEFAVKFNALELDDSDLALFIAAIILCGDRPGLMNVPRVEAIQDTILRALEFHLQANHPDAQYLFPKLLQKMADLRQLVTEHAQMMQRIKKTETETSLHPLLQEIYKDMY
# Procedure: as §1, §2, §3
# PPARα-LBD [2] = molecular target: T1, PPARα-LBD; test: TR-FRET PGC1α coactivator recruitment assay; type: biochemical; parameters: Human PPARα-LBD (amino acids 200–468); made in house; host or cells: Rosetta (DE3) pLysS (E. coli); conditions: PGC1α peptide, read-out: EC50, PGC1α recruitment to PPARα-LBD
# Procedure: (§4) Subsequently, 5 µL of 4 nM Eu-W1024-labeled anti-6×His antibody/80 nM ULight-Streptavidin (PerkinElmer) was added to each well, and the microplate was incubated in the dark for 2 h, at room temperature. […] The nonlinear fitting and the calculation of the EC50 were performed using the Prism 9 software (GraphPad, San Diego, CA, USA).
# (§5) The ligand-bound activated forms of PPARs are stabilized by associations with specific coactivators, thereby enabling the regulation of specific gene expression.
# (§6) Figure 2 TR-FRET-based LBD-mediated human PPARα/δ/γ coactivator recruitment assay. […] Data are presented as the mean ± SE of three or four independent experiments with duplicate samples, and the calculated EC50 values are shown.
# PPARα-LBD [3] = molecular target: T1, PPARα-LBD; test: TR-FRET SRC1 coactivator recruitment assay; type: biochemical; parameters: Human PPARα-LBD (amino acids 200–468); made in house; host or cells: Rosetta (DE3) pLysS (E. coli); conditions: for EC50: TR-FRET, SRC1 peptide, read-out: EC50, SRC1 recruitment to PPARα-LBD
# Procedure: as §4, §5, §6
# PPARγ-LBD [4] = molecular target: T3, PPARγ-LBD (Homo sapiens, UniProt P37231); test: Thermal stability assay using circular dichroism spectroscopy; type: binding; parameters: PPARγ-LBD (amino acids 203–477 in isoform 1); His tag (pET28a) (N); made in house; host or cells: Rosetta (DE3) pLysS (E. coli); conditions: CD at 222 nm, 10 µM LBD; for Effect on Tm of PPARγ-LBD (in words): GW1929 at 10 µM
# T3 sequence (P37231 203-477 isoform P37231-2): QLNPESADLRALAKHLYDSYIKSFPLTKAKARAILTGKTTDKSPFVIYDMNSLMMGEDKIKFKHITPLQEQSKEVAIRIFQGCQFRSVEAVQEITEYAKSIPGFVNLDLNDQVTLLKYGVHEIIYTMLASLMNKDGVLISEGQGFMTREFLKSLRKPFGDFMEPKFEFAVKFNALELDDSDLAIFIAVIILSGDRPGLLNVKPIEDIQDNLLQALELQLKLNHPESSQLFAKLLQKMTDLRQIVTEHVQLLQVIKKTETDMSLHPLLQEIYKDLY
# Procedure: as §1, §2, §3
# PPARγ-LBD [5] = molecular target: T3, PPARγ-LBD; test: TR-FRET SRC1 coactivator recruitment assay; type: biochemical; parameters: PPARγ-LBD (amino acids 203–477 in isoform 1); made in house; host or cells: Rosetta (DE3) pLysS (E. coli); conditions: SRC1 peptide, read-out: EC50, SRC1 recruitment to PPARγ-LBD
# Procedure: as §4, §5, §6
Effect on Tm of PPARα-LBD (in words) (PPARα-LBD [1]),Effect on Tm of PPARδ-LBD (in words) (PPARδ-LBD),EC50 (PPARα-LBD [2]),"Efficacy, SRC1 recruitment to PPARα-LBD (PPARα-LBD [3]; 100% = 1 µM GW7647)",EC50 (PPARα-LBD [3]),Effect on Tm of PPARγ-LBD (in words) (PPARγ-LBD [4]),EC50 (PPARγ-LBD [5]),"Relative ∆Tm response, PPARγ-LBD (highest value) (PPARγ-LBD [4]; 100% = ∆Tm by 10 µM GW1929)",SMILES
increased the Tm values,increased the Tm values,10 µM,–,13.8 µM,increased the Tm values,7.57 µM,61.4%,O=C(O)CCCc1cc2cc(Cl)ccc2n1S(=O)(=O)c1ccc2ncsc2c1 [lanifibranor]
highly increased the Tm values,highly increased the Tm values,4.11 µM,–,1.04 µM,highly increased the Tm values,3.44 µM,–,CCO[C@@H](Cc1ccc(OCCn2c(C)ccc2-c2ccc(SC)cc2)cc1)C(=O)O [saroglitazar]
increased the Tm values,increased the Tm values,3.84 µM,–,> 1 µM,increased the Tm values,> 300 µM,–,CCO[C@H](COc1ccc(C(F)(F)F)cc1)CSc1ccc(OCC(=O)O)c(C)c1 [seladelpar]

SMILES,Effect on Tm of PPARα-LBD (in words) (PPARα-LBD [1]),Effect on Tm of PPARδ-LBD (in words) (PPARδ-LBD),EC50 (PPARα-LBD [2]),"Efficacy, SRC1 recruitment to PPARα-LBD (PPARα-LBD [3]; 100% = 1 µM GW7647)",EC50 (PPARα-LBD [3]),Effect on Tm of PPARγ-LBD (in words) (PPARγ-LBD [4]),EC50 (PPARγ-LBD [5]),"Relative ∆Tm response, PPARγ-LBD (highest value) (PPARγ-LBD [4]; 100% = ∆Tm by 10 µM GW1929)"
CSc1ccc(C(=O)/C=C/c2cc(C)c(OC(C)(C)C(=O)O)c(C)c2)cc1 [elafibranor],did not significantly alter the Tm values,did not significantly alter the Tm values,6.93 µM,59.2%,4.95 µM,did not significantly alter the Tm values,11.8 µM,–
